From patent US20250011365A1, “ECHINOCANDIN-BASED DRUG, AND PREPARATION METHOD THEREFOR AND USE THEREOF” (Shenzhen Sungening Biological Co., Ltd, priority 2023, published 2025)
Numbered stars: 1 amine (or outer) side, 2 acyl side, 3 side chain; on linkers, the order of the positions; unused ones are H or OH. Bridge positions count the residues as written; N and C are the ends. Square brackets hold non-standard residues; d marks the D form. Peptide text beside a SMILES is read from it. * marks the point of attachment. Orn(4R-OH,5R-OCH2CH2NMe3+) = C[N+](C)(C)CCO[C@@H](N[*:3])[C@H](O)C[C@H](N[*:1])C(=O)[*:2]; pTerphenylCO(4''-OnC5H11) = CCCCCOc1ccc(-c2ccc(-c3ccc(C(=O)*)cc3)cc2)cc1; hTyr(3S-OH,4S-OH) = N[C@H](C(=O)O)[C@H](O)[C@@H](O)c1ccc(O)cc1; X1 = CCCCCOc1cc(F)c(C#Cc2ccc3cc(C(=O)*)ccc3c2)cc1F; Pro(3S-OH,4S-Me) = C[C@H]1CN[C@H](C(=O)O)[C@H]1O; Hyp = O=C(O)[C@@H]1C[C@@H](O)CN1

How the values were obtained:
[1] = rat, in vivo, iv
[2] = tested on: Cryptococcus neoformans ATCC 208821; test: MIC assay, yeast-type fungi (CLSI M27-A3); assay type: cell-based; settings: ATCC208821, 24 h, 35° C.
[3] = tested on: C. tropicalis ATCC 750; test: MIC assay, Candida standard strain (CLSI M27-A3); assay type: cell-based; settings: ATCC750, 24 h, 35° C.
Procedure: (§1) After gradient dilution of test compounds, an MIC assay was performed on a Candida standard strain, and an MEC assay was performed on an Aspergillus standard strain. […] A cryopreserved strain was passaged at least 2 times. A single colony was picked and resuspended in a physiological saline or sterile water tube, and the tube was subjected to vortex shaking. The Candida suspension was adjusted to 0.5 McF (1×10^6-5×10^6 CFU/mL) at a wavelength of 530 nm by using a spectrophotometer. After being diluted 50 times with physiological saline, the Candida suspension was diluted 20 times with 1×RPMI 1640 broth (1×10^3-5×10^3 CFU/mL). 10 μL of the diluted Candida suspension was coated on an SDA plate for colony counting, with a range of about 10-50 single colonies. After a prepared drug sensitive plate was completely dissolved at room temperature, the Candida suspension was added to the 96-well plate by using a multi-channel pipettor at 100 μL/well. At this time, the concentration of Candida in each well should be 0.5×10^3-2.5×10^3 CFU/mL. A yeast-type fungus assay plate was placed in an incubator, and incubated for 24 h at 35° C. and 85% humidity, and then the MIC values were read. For echinocandin-based drugs, Aspergillus was incubated for 21-26 h at 28° C., and then the MEC results were read. Yeast-type fungi: A 96-well plate was attached with a disposable parafilm, shaken for uniformly mixing, and observed with naked eyes by using a plate reader microscope. […] Pictures were taken and saved by using an automated plate reader.

[4] = tested on: C. glabrata ATCC 15126; test: MIC assay, Candida standard strain (CLSI M27-A3); assay type: cell-based; settings: Nakaseomyces glabratus, ATCC15126, 24 h, 35° C.
Procedure: as §1

[5] = tested on: Candida albicans ATCC 10231; test: MIC assay, Candida standard strain (CLSI M27-A3); assay type: cell-based; settings: ATCC10231, 24 h, 35° C., >50% growth inhibition
Procedure: as §1

[6] = tested on: Candida albicans ATCC 18804; test: MIC assay, Candida standard strain (CLSI M27-A3); assay type: cell-based; settings: ATCC18804, 24 h, 35° C.
Procedure: as §1

[7] = tested on: Candida albicans ATCC MYA-574; test: MIC assay, Candida standard strain (CLSI M27-A3); assay type: cell-based; settings: 24 h, 35° C.
Procedure: as §1

[8] = tested on: C. parapsilosis ATCC 22019; test: MIC assay, Candida standard strain (CLSI M27-A3); assay type: cell-based; settings: Lodderomyces parapsilosis, ATCC22019; C. parapsilosis ATCC 22019 (quality-control strain); 24 h, 35° C.
Procedure: as §1

[9] = tested on: Candida albicans ATCC 90028; test: MIC assay, Candida standard strain (CLSI M27-A3); assay type: cell-based; settings: ATCC90028, 24 h, 35° C., >50% growth inhibition
Procedure: as §1

[10] = tested on: Candida albicans ATCC 76485; test: MIC assay, Candida standard strain (CLSI M27-A3); assay type: cell-based; settings: ATCC76485, 24 h, 35° C.
Procedure: as §1

[11] = tested on: C. krusei ATCC 6258; test: MIC assay, Candida standard strain (CLSI M27-A3); assay type: cell-based; settings: Pichia kudriavzevii, ATCC6258; C. krusei ATCC 6258 (quality-control strain); 24 h, 35° C.
Procedure: as §1

[12] = tested on: Candida albicans ATCC MYA-1023; test: MIC assay, Candida standard strain (CLSI M27-A3); assay type: cell-based; settings: 24 h, 35° C.
Procedure: as §1

[13] = tested on: Candida albicans ATCC 14053; test: MIC assay, Candida standard strain (CLSI M27-A3); assay type: cell-based; settings: ATCC14053, 24 h, 35° C.
Procedure: as §1

[14] = tested on: Candida albicans ATCC MYA-4788; test: MIC assay, Candida standard strain (CLSI M27-A3); assay type: cell-based; settings: 24 h, 35° C.
Procedure: as §1

[15] = tested on: Candida albicans ATCC 64124; test: MIC assay, Candida standard strain (CLSI M27-A3); assay type: cell-based; settings: ATCC64124, 24 h, 35° C.
Procedure: as §1

[16] = tested on: Candida albicans ATCC MYA-427; test: MIC assay, Candida standard strain (CLSI M27-A3); assay type: cell-based; settings: 24 h, 35° C.
Procedure: as §1

[17] = tested on: Candida albicans ATCC 90029; test: MIC assay, Candida standard strain (CLSI M27-A3); assay type: cell-based; settings: ATCC90029, 24 h, 35° C.
Procedure: as §1

[18] = tested on: Candida albicans CMCC 98001; test: MIC assay, Candida standard strain (CLSI M27-A3); assay type: cell-based; settings: CMCC98001, 24 h, 35° C.
Procedure: as §1

[19] = tested on: Candida albicans ATCC MYA-2876; test: MIC assay, Candida standard strain (CLSI M27-A3); assay type: cell-based; settings: 24 h, 35° C.
Procedure: as §1

[20] = tested on: Candida albicans CICC 1943; test: MIC assay, Candida standard strain (CLSI M27-A3); assay type: cell-based; settings: CICC1943, 24 h, 35° C.
Procedure: as §1

[21] = tested on: Pichia guilliermondii ATCC 6260; test: MIC assay, yeast-type fungi (CLSI M27-A3); assay type: cell-based; settings: Meyerozyma guilliermondii, ATCC6260, 24 h, 35° C.
Procedure: as §1

[22] = tested on: Aspergillus fumigatus ATCC 204305; test: MEC assay, Aspergillus standard strain (CLSI M38-A2); assay type: cell-based; settings: 21-26 h, 28° C.
Procedure: After gradient dilution of test compounds, an MIC assay was performed on a Candida standard strain, and an MEC assay was performed on an Aspergillus standard strain.
The colonies on the plate were covered with 0.85% physiological saline (1 mL) or sterile water (polysorbate 20 was added to a final concentration of 0.1%-0.01%). […] The resuspension of spore hyphae was transferred to a sterile test tube, and left to stand for 3-5 min to precipitate heavier particles. The homogeneous suspension on the upper layer was transferred to a new sterile test tube, and the tube was capped closely, and subjected to vortex shaking for 15 s (note: the suspension can produce an aerosol when the cap is reopened). The concentration of the suspension was adjusted to an OD value of 0.09-0.13 at 530 nm by using a spectrophotometer. […] Within 2 h after dilution, 100 μL of the diluted suspension was added to each well in a 96-well plate (the concentration of spores in the final drug sensitive plate should be 0.4×10^4-5×10^4 CFU/mL).
In order to accurately determine MEC value, vortex oscillation should not be allowed before reading the plate.

[23] = in vivo; settings: SD, rat, iv
[24] = Study on pharmacokinetic properties in rats after intravenous injection; settings: SD, rat, in vivo, 5 mg/kg

Structure (SMILES): CCCCCOc1cc(F)c(C#Cc2ccc3cc(C(=O)N[C@H]4C[C@@H](O)[C@@H](OCC[N+](C)(C)C)NC(=O)[C@@H]5[C@@H](O)[C@@H](C)CN5C(=O)[C@H]([C@@H](C)O)NC(=O)[C@H]([C@H](O)[C@@H](O)c5ccc(O)cc5)NC(=O)[C@@H]5C[C@@H](O)CN5C(=O)[C@H]([C@@H](C)O)NC4=O)ccc3c2)cc1F [Example 16] (X1-[Orn(4R-OH,5R-OCH2CH2NMe3+)]T[Hyp][hTyr(3S-OH,4S-OH)]T[Pro(3S-OH,4S-Me)]; lactam 1-C)
- drug exposure level (Cmax and AUC) and half-life (T1/2) in the blood plasma compared with rezafungin [1]: significantly higher
- MIC [2]: 8 µg/mL
- MIC [3]: ≤ 0.015 µg/mL
- MIC [4]: 0.06 µg/mL
- MIC [5]: 0.03 µg/mL
- MIC [6]: ≤ 0.015 µg/mL
- MIC [7]: ≤ 0.015 µg/mL
- MIC [8]: 0.5 µg/mL
- MIC [9]: 0.03 µg/mL
- MIC [10]: ≤ 0.015 µg/mL
- MIC [11]: 0.06 µg/mL
- MIC [12]: ≤ 0.015 µg/mL
- MIC [13]: ≤ 0.015 µg/mL
- MIC [14]: ≤ 0.015 µg/mL
- MIC [15]: ≤ 0.015 µg/mL
- MIC [16]: 0.03 µg/mL
- MIC [17]: ≤ 0.015 µg/mL
- MIC [18]: ≤ 0.015 µg/mL
- MIC [19]: ≤ 0.015 µg/mL
- MIC [20]: 0.03 µg/mL
- MIC [21]: 0.25 µg/mL
- MEC [22]: ≤0.015 µg/mL
- AUC(0-inf) ([23]; 2.5 mg/kg): 275 µg·h/mL
- AUC(0-t) ([23]; 2.5 mg/kg): 206 µg·h/mL
- Cmax ([23]; 2.5 mg/kg): 6080 ng/mL
- MRT last ([23]; 2.5 mg/kg): 26.1 h
- Vd ([23]; 2.5 mg/kg): 0.49 L/kg
- clearance ([23]; 2.5 mg/kg): 0.15 mL/min/kg
- half-life ([23]; 2.5 mg/kg): 37.3 h
- AUC(0-inf) ([23]; 5 mg/kg): 424 µg·h/mL
- AUC(0-t) ([23]; 5 mg/kg): 326 µg·h/mL
- Cmax ([23]; 5 mg/kg): 12000 ng/mL
- MRT last ([23]; 5 mg/kg): 24.2 h
- Vd ([23]; 5 mg/kg): 0.591 L/kg
- clearance ([23]; 5 mg/kg): 0.2 mL/min/kg
- half-life ([23]; 5 mg/kg): 34.8 h

Structure (SMILES): CCCCCOc1ccc(-c2ccc(-c3ccc(C(=O)N[C@H]4C[C@@H](O)[C@@H](OCC[N+](C)(C)C)NC(=O)[C@@H]5[C@@H](O)[C@@H](C)CN5C(=O)[C@H]([C@@H](C)O)NC(=O)[C@H]([C@H](O)[C@@H](O)c5ccc(O)cc5)NC(=O)[C@@H]5C[C@@H](O)CN5C(=O)[C@H]([C@@H](C)O)NC4=O)cc3)cc2)cc1 [Rezafungin, rezafungin, reference compound] ({pTerphenylCO(4''-OnC5H11)}-[Orn(4R-OH,5R-OCH2CH2NMe3+)]T[Hyp][hTyr(3S-OH,4S-OH)]T[Pro(3S-OH,4S-Me)]; lactam 1-C)
- MIC [2]: 16 µg/mL
- MIC [3]: ≤ 0.015 µg/mL
- MIC [4]: 0.06 µg/mL
- MIC [5]: ≤ 0.015 µg/mL
- MIC [6]: ≤ 0.015 µg/mL
- MIC [7]: ≤ 0.015 µg/mL
- MIC [8]: 0.5 µg/mL
- MIC [9]: ≤ 0.015 µg/mL
- MIC [10]: ≤ 0.015 µg/mL
- MIC [11]: 0.03 µg/mL
- MIC [12]: ≤ 0.015 µg/mL
- MIC [13]: ≤ 0.015 µg/mL
- MIC [14]: ≤ 0.015 µg/mL
- MIC [15]: ≤ 0.015 µg/mL
- MIC [16]: ≤ 0.015 µg/mL
- MIC [17]: ≤ 0.015 µg/mL
- MIC [18]: ≤ 0.015 µg/mL
- MIC [19]: ≤ 0.015 µg/mL
- MIC [20]: ≤ 0.015 µg/mL
- MIC [21]: 0.25 µg/mL
- AUC(0-inf) [24]: 104 µg·h/mL
- AUC(0-t) [24]: 89 µg·h/mL
- Cmax [24]: 4750 ng/mL
- MRT last [24]: 20.2 h
- Vd [24]: 1.9 L/kg
- clearance [24]: 0.8 mL/min/kg
- half-life [24]: 27.5 h
- MEC [22]: ≤0.015 µg/mL
